Experiment [1] addresses T1, dopamine-β-hydroxylase (DBH) (Homo sapiens, UniProt P09172).
T1 sequence (P09172 1-617): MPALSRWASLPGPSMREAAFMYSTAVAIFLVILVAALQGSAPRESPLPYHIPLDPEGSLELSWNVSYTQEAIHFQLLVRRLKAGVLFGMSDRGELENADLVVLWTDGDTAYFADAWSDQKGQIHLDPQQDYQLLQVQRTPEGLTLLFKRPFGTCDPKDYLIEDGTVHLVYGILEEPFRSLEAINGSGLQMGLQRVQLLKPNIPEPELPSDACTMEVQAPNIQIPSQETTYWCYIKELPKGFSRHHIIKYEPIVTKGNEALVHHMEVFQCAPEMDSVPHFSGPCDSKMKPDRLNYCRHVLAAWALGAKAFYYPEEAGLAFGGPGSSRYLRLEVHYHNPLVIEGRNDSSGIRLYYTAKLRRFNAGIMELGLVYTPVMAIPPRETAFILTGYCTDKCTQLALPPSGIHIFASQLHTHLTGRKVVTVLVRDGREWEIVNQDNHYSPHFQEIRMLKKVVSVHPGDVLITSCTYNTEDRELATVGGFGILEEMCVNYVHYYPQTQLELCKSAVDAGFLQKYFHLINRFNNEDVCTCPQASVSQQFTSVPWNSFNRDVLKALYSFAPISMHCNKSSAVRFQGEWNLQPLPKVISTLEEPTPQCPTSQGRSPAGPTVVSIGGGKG
Description: in vitro DBH inhibition, conversion of tyramine to octopamine in the presence of DBH. In kind it is biochemical. The protocol:
Listed in Table I are the compounds of the invention that were tested for in vitro DBH inhibition by a standard procedure for assaying conversion of tyramine to octopamine in the presence of DBH. J. J. Pisano, et al., Biochem. Biophys, Acta, 43, 566-568 (1960). Octopamine was assayed following sodium periodate oxidation to p-hydroxybenzaldehyde by measuring spectrophotometric absorbance at 330 nm. In Table I, inhibition is given in micromolar concentration of compound at which DBH activity was halved (IC₅₀).

Experiment [2] relates to spontaneously hypertensive rats. Description: mean arterial blood pressure in spontaneously hypertensive rats. In kind it is in vivo. The note with it: 50 mg/kg intraperitoneally, compared to vehicle-treated controls, approximate. The protocol: Further, spontaneously hypertensive rats were treated with a suspension or solution of 1-(2-furanylmethyl)imidazole-2-thiol at a dose of 50 mg/kg intraperitoneally, and mean arterial blood pressure was monitored for 260 minutes using indwelling cannulae in the tail arteries. […] Maximal blood pressure reduction was approximately 50 to 55 mm Hg.

Setting [3] is: concentration of compound at which DBH activity was halved, tyramine to octopamine, absorbance at 330 nm, read-out: DBH IC50.

Like-named read-outs stand apart in the source and are kept apart here.

The IC50 is the concentration at which inhibition is half-maximal. For `Sc1nccn1Cc1ccoc1` [1-(3-furanylmethyl)imidazole-2-thiol], in experiment [1] (setting [3]), the half-inhibitory concentration (IC50) was determined as 36 µM.

In the case of `Sc1nccn1Cc1ccco1` [1-(2-furanylmethyl)imidazole-2-thiol], the half-inhibitory concentration (IC50) in experiment [1] (setting [3]) came out at 56 µM. Also, the “time after treatment to significant blood pressure reductions” value in experiment [2] is not above 30 min.

`CCCCc1ccc(C(=O)O)nc1` [fusaric acid, reference compound]: the IC50 in experiment [1] amounted to 0.8 µM.

Values taken from patent EP0285356A2, “Dopamine-beta-hydroxylase inhibitors” (SMITHKLINE BECKMAN CORPORATION, priority 1987, dated 1988).
